Target: T1, fennel nsLTP1 (Anethum foeniculum, UniProt C0HLP9)
T1 construct: native mature protein purified from seeds (gel filtration, RP-HPLC); 91 residues, 9433 Da, monomer
T1 sequence (C0HLP9 1-91): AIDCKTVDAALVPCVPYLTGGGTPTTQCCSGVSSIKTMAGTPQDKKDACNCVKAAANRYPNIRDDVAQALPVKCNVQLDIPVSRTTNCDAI
Assay: TNS fluorescence displacement
Assay type: binding
Conditions: 3.5 µM TNS, 4 µM nsLTP1, fatty acid 5-20 µM; 175 mM mannitol, 0.5 mM K2SO4, 0.5 mM CaCl2, 5 mM MES pH 7.0, 25 °C; competitive with TNS

Row | SMILES | % of the control fluorescence (nsLTP1-TNS complex)
1 | CC/C=C\C/C=C\C/C=C\CCCCCCCC(=O)O [linolenic acid, all-cis-9,12,15-octadecatrienoic acid] | 7–59%
2 | CCCCCCCCCCCCCCCC(=O)O [palmitic acid] | 40–69%
3 | CCCCC/C=C\C/C=C\CCCCCCCC(=O)O [linoleic acid, cis, cis-9,12-Octadecadienoic acid] | 4–40%
4 | CCCCCCCCCCCCCCCCCC(=O)O [stearic acid] | 21–59%

From PMC7718255, “Structural characterization and in vitro lipid binding studies of non-specific lipid transfer protein 1 (nsLTP1) from fennel (Foeniculum vulgare) seeds” (Scientific Reports, 2020)
